Laboratory results as given in ChEMBL document CHEMBL1212738, “Phenotypic and genotypic characterization of Enterobacteriaceae with decreased susceptibility to carbapenems: results from large hospital-based surveillance studies in China” (2010).
Converted amounts (≈) assume the structure as drawn.

Tests used:
[1] = tested on: Enterobacter cloacae; test: Antimicrobial activity against carbapenem-resistant Enterobacter cloacae WH103 deficient in IMP-4, TEM-1, CTX-M-3, qnrS1, ompC by CLSI method; assay type: functional
[2] = tested on: Escherichia coli; test: Antimicrobial activity against Escherichia coli ZJ87 expressing KPC-2, TEM-1, ompC by CLSI method; assay type: functional
[3] = tested on: Klebsiella pneumoniae; test: Antimicrobial activity against Klebsiella pneumoniae ZJ68T expressing CTX-M-15 by CLSI method; assay type: functional
[4] = tested on: Escherichia coli; test: Antimicrobial activity against Escherichia coli ZJ86T expressing KPC-2 by CLSI method; assay type: functional
[5] = tested on: Klebsiella pneumoniae; test: Antimicrobial activity against Klebsiella pneumoniae GZ64 expressing IMP-4, ompK35/36 by CLSI method; assay type: functional
[6] = tested on: Escherichia coli; test: Antimicrobial activity against Escherichia coli C600 transconjugant XJ81T expressing TEM-1, SHV-12, aac(6')-Ib by CLSI method
[7] = tested on: Klebsiella pneumoniae; test: Antimicrobial activity against Klebsiella pneumoniae GZ64T expressing IMP-4 by CLSI method; assay type: functional
[8] = tested on: Klebsiella pneumoniae; test: Antimicrobial activity against Klebsiella pneumoniae PU104T expressing TEM-1, CTX-M-15 by CLSI method; assay type: functional
[9] = tested on: Escherichia coli; test: Antimicrobial activity against Escherichia coli PU102T expressing TEM-1, CTX-M-14, CMY-2 by CLSI method; assay type: functional
[10] = tested on: Enterobacter cloacae; test: Antimicrobial activity against carbapenem-resistant Enterobacter cloacae SZ93 deficient in ompC by CLSI method; assay type: functional
[11] = tested on: Escherichia coli; test: Antimicrobial activity against Escherichia coli C600 transconjugant GZ66T expressing SHV-11, DHA-1 by CLSI method
[12] = tested on: Escherichia coli; test: Antimicrobial activity against carbapenem-resistant Escherichia coli PU102 deficient in TEM-1, CTX-M-14, CMY-2, aac(6')-Ib, ompC DEc, ompF by CLSI method; assay type: functional
[13] = tested on: Klebsiella pneumoniae; test: Antimicrobial activity against Klebsiella pneumoniae FZ47T expressing IMP-8, TEM-1, CTX-M-14, qnrB2, aac(6')-Ib by CLSI method; assay type: functional
[14] = tested on: Enterobacter cloacae; test: Antimicrobial activity against carbapenem-resistant Enterobacter cloacae RJ94 deficient in IMP-4, TEM-1, CTX-M-3, ompC by CLSI method; assay type: functional
[15] = tested on: Klebsiella aerogenes; test: Antimicrobial activity against Enterobacter aerogenes PU41T expressing CTX-M-14, DHA-1, qnrS1 by CLSI method; assay type: functional
[16] = tested on: Escherichia coli; test: Antimicrobial activity against carbapenem-resistant Escherichia coli PU60 deficient in TEM-1, CMY-2, ompC/F by CLSI method; assay type: functional
[17] = tested on: Klebsiella pneumoniae; test: Antimicrobial activity against Klebsiella pneumoniae FZ49T expressing IMP-8, TEM-1, CTX-M-14, qnrB2, aac(6')-Ib by CLSI method; assay type: functional
[18] = tested on: Enterobacter cloacae; test: Antimicrobial activity against carbapenem-resistant Enterobacter cloacae NJ88 deficient in CTX-M-14, ompC/F by CLSI method; assay type: functional
[19] = tested on: Klebsiella pneumoniae; test: Antimicrobial activity against Klebsiella pneumoniae ZJ18T expressing KPC-2, DHA-1 by CLSI method; assay type: functional
[20] = tested on: Escherichia coli; test: Antimicrobial activity against carbapenem-resistant Escherichia coli PU96 deficient in TEM-1, CTX-M-14, CMY-2, ompC/F by CLSI method; assay type: functional
[21] = tested on: Klebsiella pneumoniae; test: Antimicrobial activity against carbapenem-resistant Klebsiella pneumoniae ZJ18 deficient in KPC-2, SHV-28, DHA-1, ompK35 by CLSI method; assay type: functional
[22] = tested on: Klebsiella pneumoniae; test: Antimicrobial activity against carbapenem-resistant Klebsiella pneumoniae PU104 deficient in TEM-1, SHV-11, CTX-M-15, qnrS1, ompK35/36 by CLSI method; assay type: functional
[23] = tested on: Klebsiella pneumoniae; test: Antimicrobial activity against carbapenem-resistant Klebsiella pneumoniae SX67 deficient in SHV-2, CTX-M-14, DHA-1, qnrB6/S1, aac(6')-Ib-cr, ompK35/36 by CLSI method; assay type: functional
[24] = tested on: Klebsiella pneumoniae; test: Antimicrobial activity against Klebsiella pneumoniae WH97 expressing SHV-33, aac(6')-Ib, ompK35 DE by CLSI method; assay type: functional
[25] = tested on: Enterobacter cloacae; test: Antimicrobial activity against carbapenem-resistant Enterobacter cloacae NJ89 deficient in CTX-M-14, ompC/F by CLSI method; assay type: functional
[26] = tested on: Escherichia coli; test: Antimicrobial activity against carbapenem-resistant Escherichia coli PU43 deficient in TEM-1, CTX-M-14, aac(6')-Ib, ompC/F by CLSI method; assay type: functional
[27] = tested on: Citrobacter freundii; test: Antimicrobial activity against Citrobacter freundii RJ78 expressing CMY-2, qnrA1, aac(6')-Ib-cr, ompC by CLSI method; assay type: functional
[28] = tested on: Enterobacter cloacae; test: Antimicrobial activity against carbapenem-resistant Enterobacter cloacae NJ90 deficient in CTX-M-14, ompC/F by CLSI method; assay type: functional
[29] = tested on: Klebsiella aerogenes; test: Antimicrobial activity against carbapenem-resistant Enterobacter aerogenes PU41 deficient in CTX-M-14, DHA-1, qnrS1, ompC DEc, ompF by CLSI method; assay type: functional
[30] = tested on: Enterobacter cloacae; test: Antimicrobial activity against carbapenem-resistant Enterobacter cloacae NJ91 deficient in CTX-M-14, ompC/F by CLSI method; assay type: functional
[31] = tested on: Klebsiella pneumoniae; test: Antimicrobial activity against carbapenem-resistant Klebsiella pneumoniae PU3 deficient in DHA-1, aac(6')-Ib-cr, ompK35/36 by CLSI method; assay type: functional
[32] = tested on: Escherichia coli; test: Antimicrobial activity against carbapenem-resistant Escherichia coli HX74 deficient in TEM-1, CTX-M-14, CTX-M-3, aac(6')-Ibcr, ompC/F by CLSI method; assay type: functional
[33] = tested on: Klebsiella pneumoniae; test: Antimicrobial activity against Klebsiella pneumoniae ZJ70T expressing KPC-2 by CLSI method; assay type: functional

Compound: CN(C)c1cc(NC(=O)CNC(C)(C)C)c(O)c2c1C[C@H]1C[C@H]3[C@H](N(C)C)C(O)=C(C(N)=O)C(=O)[C@@]3(O)C(O)=C1C2=O [TIGECYCLINE]
- MIC [1]: 1 µg/mL (≈ 1.71 µM)
- MIC [2]: 0.25 µg/mL (≈ 0.427 µM)
- MIC [3]: 0.064 µg/mL (≈ 0.109 µM)
- MIC [4]: 0.25 µg/mL (≈ 0.427 µM)
- MIC [5]: 0.5 µg/mL (≈ 0.854 µM)
- MIC [6]: 0.064 µg/mL (≈ 0.109 µM)
- MIC [7]: 0.06 µg/mL (≈ 0.102 µM)
- MIC [8]: 0.25 µg/mL (≈ 0.427 µM)
- MIC [9]: 0.25 µg/mL (≈ 0.427 µM)
- MIC [10]: 1 µg/mL (≈ 1.71 µM)
- MIC [11]: 0.125 µg/mL (≈ 0.213 µM)
- MIC [12]: 0.25 µg/mL (≈ 0.427 µM)
- MIC [13]: 0.06 µg/mL (≈ 0.102 µM)
- MIC [14]: 1 µg/mL (≈ 1.71 µM)
- MIC [15]: 0.064 µg/mL (≈ 0.109 µM)
- MIC [16]: 0.125 µg/mL (≈ 0.213 µM)
- MIC [17]: 0.06 µg/mL (≈ 0.102 µM)
- MIC [18]: 0.5 µg/mL (≈ 0.854 µM)
- MIC [19]: 0.06 µg/mL (≈ 0.102 µM)
- MIC [20]: 1 µg/mL (≈ 1.71 µM)
- MIC [21]: 1 µg/mL (≈ 1.71 µM)
- MIC [22]: 0.5 µg/mL (≈ 0.854 µM)
- MIC [23]: 0.5 µg/mL (≈ 0.854 µM)
- MIC [24]: 0.5 µg/mL (≈ 0.854 µM)
- MIC [25]: 0.5 µg/mL (≈ 0.854 µM)
- MIC [26]: 0.25 µg/mL (≈ 0.427 µM)
- MIC [27]: 1 µg/mL (≈ 1.71 µM)
- MIC [28]: 0.5 µg/mL (≈ 0.854 µM)
- MIC [29]: 1 µg/mL (≈ 1.71 µM)
- MIC [30]: 0.5 µg/mL (≈ 0.854 µM)
- MIC [31]: 0.25 µg/mL (≈ 0.427 µM)
- MIC [32]: 0.064 µg/mL (≈ 0.109 µM)
- MIC [33]: 0.13 µg/mL (≈ 0.222 µM)
